Experimental data from ChEMBL document CHEMBL1125066, “Phosphoramidate peptide inhibitors of human skin fibroblast collagenase” (J Med Chem, 1990).
Square brackets hold non-standard residues; d marks the D form. Peptide text beside a SMILES is read from it. * marks the point of attachment. Arg(NO2) = N=C(NCCC[C@H](N)C(=O)O)N[N+](=O)[O-]; X1 = CCOP(=O)(O)N[C@H](C(=O)*)[C@@H](C)CC

Key:
[1] = target: T1, Interstitial collagenase (Homo sapiens, UniProt P03956); test: Assayed against human skin fibroblast Collagenase using the spectrophotometric assay with the thiol ester substrate at pH 6.5.
T1 sequence (P03956 whole entry): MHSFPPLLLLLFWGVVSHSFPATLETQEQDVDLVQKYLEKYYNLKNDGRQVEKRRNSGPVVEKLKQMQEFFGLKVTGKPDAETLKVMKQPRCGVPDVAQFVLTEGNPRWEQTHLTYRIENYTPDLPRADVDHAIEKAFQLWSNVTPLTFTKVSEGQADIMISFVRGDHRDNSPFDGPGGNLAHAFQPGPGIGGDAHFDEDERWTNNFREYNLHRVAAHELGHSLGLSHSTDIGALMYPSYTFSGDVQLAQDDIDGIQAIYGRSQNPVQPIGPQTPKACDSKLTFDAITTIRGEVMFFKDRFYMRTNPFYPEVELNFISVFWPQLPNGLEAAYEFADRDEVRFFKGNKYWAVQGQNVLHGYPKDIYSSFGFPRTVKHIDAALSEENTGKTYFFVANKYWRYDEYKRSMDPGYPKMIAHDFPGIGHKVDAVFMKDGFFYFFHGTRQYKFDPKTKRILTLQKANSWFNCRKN

[2] = target: T2, Collagenase ColA (Bacteria, UniProt P43153); test: Inhibition of bacterial Collagenase; parameters: species or system Hathewaya histolytica
T2 sequence (P43153 whole entry): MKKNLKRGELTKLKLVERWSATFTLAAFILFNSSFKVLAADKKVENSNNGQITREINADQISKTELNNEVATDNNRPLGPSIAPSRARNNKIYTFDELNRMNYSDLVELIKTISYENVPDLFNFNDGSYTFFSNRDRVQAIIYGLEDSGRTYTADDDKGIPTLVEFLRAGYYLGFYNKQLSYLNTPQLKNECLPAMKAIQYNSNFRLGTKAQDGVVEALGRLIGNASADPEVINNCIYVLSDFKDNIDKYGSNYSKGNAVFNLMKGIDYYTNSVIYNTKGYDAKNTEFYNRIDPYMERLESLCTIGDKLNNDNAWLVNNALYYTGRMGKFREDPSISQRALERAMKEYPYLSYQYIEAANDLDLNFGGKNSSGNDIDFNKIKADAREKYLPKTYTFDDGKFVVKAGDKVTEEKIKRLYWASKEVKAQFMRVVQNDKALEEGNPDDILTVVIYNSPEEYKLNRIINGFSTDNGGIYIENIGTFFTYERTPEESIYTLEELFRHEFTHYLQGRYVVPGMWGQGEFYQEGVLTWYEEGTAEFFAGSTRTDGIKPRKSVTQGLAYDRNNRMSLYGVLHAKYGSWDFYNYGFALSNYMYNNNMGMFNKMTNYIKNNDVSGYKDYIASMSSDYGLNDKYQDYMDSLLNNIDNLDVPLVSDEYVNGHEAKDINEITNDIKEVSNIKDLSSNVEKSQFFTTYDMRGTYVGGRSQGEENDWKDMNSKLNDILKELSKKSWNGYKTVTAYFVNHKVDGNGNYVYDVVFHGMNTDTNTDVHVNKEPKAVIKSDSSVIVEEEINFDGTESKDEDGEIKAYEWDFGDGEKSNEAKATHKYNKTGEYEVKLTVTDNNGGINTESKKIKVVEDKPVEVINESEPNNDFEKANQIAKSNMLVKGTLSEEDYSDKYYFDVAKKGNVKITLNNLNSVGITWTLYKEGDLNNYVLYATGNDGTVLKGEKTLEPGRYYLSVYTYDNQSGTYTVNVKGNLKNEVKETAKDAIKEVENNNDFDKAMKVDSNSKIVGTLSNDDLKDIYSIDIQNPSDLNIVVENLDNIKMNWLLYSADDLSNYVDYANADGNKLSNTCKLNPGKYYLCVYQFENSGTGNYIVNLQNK

[3] = target: T1, Interstitial collagenase; test: Inhibition of human skin fibroblast Collagenase at pH 7.5
[4] = target: T3, Angiotensin-converting enzyme (Oryctolagus cuniculus, UniProt P12822); test: Inhibitory activity against Angiotensin I converting enzyme
T3 sequence (P12822 whole entry): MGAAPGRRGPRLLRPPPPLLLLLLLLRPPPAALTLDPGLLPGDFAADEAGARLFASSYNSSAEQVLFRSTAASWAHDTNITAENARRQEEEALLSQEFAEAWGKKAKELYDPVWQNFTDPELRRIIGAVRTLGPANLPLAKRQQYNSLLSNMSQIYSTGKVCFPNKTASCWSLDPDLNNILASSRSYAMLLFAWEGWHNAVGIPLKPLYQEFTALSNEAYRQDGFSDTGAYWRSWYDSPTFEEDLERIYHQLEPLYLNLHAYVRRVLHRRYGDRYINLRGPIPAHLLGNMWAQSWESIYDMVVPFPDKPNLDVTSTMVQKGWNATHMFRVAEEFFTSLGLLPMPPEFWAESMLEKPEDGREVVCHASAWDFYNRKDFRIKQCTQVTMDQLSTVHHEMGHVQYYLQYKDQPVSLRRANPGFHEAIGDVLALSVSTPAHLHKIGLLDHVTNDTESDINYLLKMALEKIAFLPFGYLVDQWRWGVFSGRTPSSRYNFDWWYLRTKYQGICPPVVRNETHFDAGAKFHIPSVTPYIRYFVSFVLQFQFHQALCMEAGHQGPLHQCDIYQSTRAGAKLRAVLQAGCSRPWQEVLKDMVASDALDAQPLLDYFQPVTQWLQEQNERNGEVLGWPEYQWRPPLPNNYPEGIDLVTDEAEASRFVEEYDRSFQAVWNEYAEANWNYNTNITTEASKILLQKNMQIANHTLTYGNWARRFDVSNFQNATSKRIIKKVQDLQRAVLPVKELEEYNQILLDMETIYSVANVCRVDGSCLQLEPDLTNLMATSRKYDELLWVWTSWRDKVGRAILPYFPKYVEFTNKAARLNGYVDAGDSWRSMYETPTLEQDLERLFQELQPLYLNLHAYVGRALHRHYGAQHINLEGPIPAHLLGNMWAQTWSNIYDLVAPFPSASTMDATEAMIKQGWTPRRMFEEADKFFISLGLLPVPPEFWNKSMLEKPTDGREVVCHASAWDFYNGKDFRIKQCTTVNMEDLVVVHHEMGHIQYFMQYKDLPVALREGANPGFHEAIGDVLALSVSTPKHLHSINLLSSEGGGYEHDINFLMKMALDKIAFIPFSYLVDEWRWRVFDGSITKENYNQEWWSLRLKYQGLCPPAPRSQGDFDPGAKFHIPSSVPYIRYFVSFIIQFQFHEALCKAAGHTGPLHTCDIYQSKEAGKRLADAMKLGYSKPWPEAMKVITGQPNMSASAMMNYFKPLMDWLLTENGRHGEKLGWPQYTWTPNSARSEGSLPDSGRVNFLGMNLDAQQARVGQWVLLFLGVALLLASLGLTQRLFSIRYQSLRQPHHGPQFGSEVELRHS

SMILES | Ki [1] | other results
CCOP(=O)(O)N[C@H](C(=O)NC(Cc1ccc(OC)cc1)C(=O)NC)[C@@H](C)CC (some centres undefined) | 31 µM | 
CCOP(=O)(O)N[C@H](C(=O)NC(Cc1c[nH]c2ccccc12)C(=O)NC)[C@@H](C)CC (some centres undefined) | 1.5 µM | Ki [2]: > 5000 µM; Ki [3]: 0.9 µM
CCOP(=O)(O)N[C@H](C(=O)NC(Cc1ccc(OCc2ccccc2)cc1)C(=O)NC)[C@@H](C)CC (some centres undefined) | 18 µM | 
CCOP(=O)(O)N[C@H](C(=O)NC(Cc1ccc(OCc2ccccc2)cc1)C(=O)NCC(=O)O)[C@@H](C)CC (some centres undefined) | 6.7 µM | Ki [4]: 0.2 µM; Ki [2]: > 5 µM
CCOP(=O)(O)N[C@H](C(=O)N[C@@H](Cc1ccc(OCC(=O)NCc2ccccc2)cc1)C(=O)NCC(=O)O)[C@@H](C)CC | 16 µM | 
CCOP(=O)(O)N[C@H](C(=O)N[C@@H](Cc1ccc(OCc2cc(Cl)cc(Cl)c2)cc1)C(=O)NCC(=O)O)[C@@H](C)CC | 5.7 µM | Ki [3]: 13 µM
CCOP(=O)(O)N[C@H](C(=O)NC(Cc1ccc(OC2CCCCO2)cc1)C(=O)NCC(=O)O)[C@@H](C)CC (some centres undefined) | 25 µM | 
CCOP(=O)(O)N[C@H](C(=O)N[C@@H](Cc1ccc(OCC(=O)O)cc1)C(=O)NCC(=O)O)[C@@H](C)CC | 32 µM | 
CCOP(=O)(O)N[C@H](C(=O)N[C@@H](Cc1ccc(OCC(=O)N[C@@H](CCCCN)C(=O)O)cc1)C(=O)NCC(=O)O)[C@@H](C)CC | 50 µM | 
CCOP(=O)(O)N[C@H](C(=O)N[C@@H](Cc1ccc(OCC(=O)N(Cc2ccccc2)Cc2ccccc2)cc1)C(=O)NCC(=O)O)[C@@H](C)CC | 27 µM | 
CCOP(=O)(O)N[C@H](C(=O)N[C@@H](Cc1ccc(OCc2ccccc2)cc1)C(=O)N[C@@H](Cc1ccccc1)C(=O)O)[C@@H](C)CC | 120 µM | 
CCOP(=O)(O)N[C@H](C(=O)N[C@@H](Cc1ccc(O)cc1)C(=O)NCC(=O)O)[C@@H](C)CC | 22 µM | 
CCOP(=O)(O)N[C@H](C(=O)N[C@@H](Cc1c[nH]c2ccccc12)C(=O)NCC(=O)O)[C@@H](C)CC | 13 µM | 
CCOP(=O)(O)N[C@H](C(=O)N[C@@H](C)C(=O)NCC(=O)O)[C@@H](C)CC | 130 µM | Ki [3]: 147 µM
CCOP(=O)(O)N[C@@H](CC(C)C)C(=O)N[C@@H](C)C(=O)NCC(=O)O | 140 µM | 
CCOP(=O)(O)N[C@H](C(=O)N[C@@H](CC(C)C)C(=O)NCC(=O)O)[C@@H](C)CC | 49 µM | 
CCOP(=O)(O)N[C@H](C(=O)N[C@@H](C)C(=O)NCC(=O)N[C@@H](CC(C)C)C(=O)O)[C@@H](C)CC | 240 µM | 
CCOP(=O)(O)N[C@H](C(=O)N[C@@H](Cc1ccccc1)C(=O)NCC(=O)O)[C@@H](C)CC | 29 µM | 
CCOP(=O)(O)N[C@H](C(=O)N[C@@H](Cc1ccc(N)cc1)C(=O)NCC(=O)O)[C@@H](C)CC | 19 µM | 
CCOP(=O)(O)N[C@H](C(=O)N[C@@H](C)C(=O)NCC(=O)N[C@@H](CCC(=O)O)C(=O)N[C@@H](CCCN=C(N)N)C(=O)NCC(=O)O)[C@@H](C)CC (X1-AGERG-OH) | 403 µM | 
CCOP(=O)(O)N[C@H](C(=O)N[C@@H](C)C(=O)NCC(=O)N[C@@H](CCC(=O)O)C(=O)N[C@@H](CCCNC(=N)N[N+](=O)[O-])C(=O)NCC(=O)O)[C@@H](C)CC (X1-AGE[Arg(NO2)]G-OH) | 270 µM | 
CCOP(=O)(O)N[C@H](C(=O)N[C@@H](C)C(=O)NCC(=O)N[C@@H](CCC(N)=O)C(=O)N[C@@H](CCCNC(=N)N)C(=O)NCC(=O)O)[C@@H](C)CC (X1-AGQRG-OH) | 460 µM | 
CCOP(=O)(O)N[C@H](C(=O)N[C@@H](C)C(=O)NCC(=O)N[C@@H](CCC(N)=O)C(=O)N[C@@H](CCCNC(=N)N[N+](=O)[O-])C(=O)O)[C@@H](C)CC (X1-AGQ[Arg(NO2)]-OH) | 1900 µM | 
